# Results reported in paper PMC10451299, “Phytochemical Constituents and Biological Activity of Wild and Cultivated Rosmarinus officinalis Hydroalcoholic Extracts” (Antioxidants, 2023).
# Marks after values point to notes of the source that are not given here.
# Tests used:
# [1] = DPPH radical scavenging assay; details: mean ± SD, three experiments
# Procedure: The antiradical activity was determined using the stable 1,1-diphenyl-2-picrylhydrazyl radical (DPPH) following the protocol of Brand-Williams with some modifications reported by De Martino and coworkers.
# [2] = FRAP (ferric ion reducing antioxidant power) assay; details: mean ± SD, three experiments
# AChE = details: cited from earlier work
SMILES,DPPH IC50 (concentration required to reduce the absorbance of DPPH by 50%) [1],FRAP [2],activity on AChE (AChE),effect on the AChE enzyme (AChE)
"Cc1c(C)c2c(c(C)c1O)CCC(C)(C(=O)O)O2 (stereo not shown) [Trolox, 6-hydroxy-2,5,7,8-tetramethylchroman-2-carboxylic acid]",3.65 ± 0.08 ^c µg/mL,5.48 ± 0.34 ^a mmol Fe^2+ Equivalents/g Extract,,
"COc1ccc(-c2cc(=O)c3c(O)c(OC)c(OC)cc3o2)cc1 [salvigenin, Salvigenin]",,,not active,stimulating effect
